Experimental data as given in patent publication US20250313546A1, “NUCLEIC ACID BINDERS” (UNIVERSITY OF STRATHCLYDE, priority 2022, published 2025).
In brackets after ≈: the same amount, converted by molar mass.

What was measured:
Test in all cases: Antibacterial MIC, broth microdilution (CLSI)
Format in all cases: cell-based
[1] = test system: Enterococcus faecalis (ATCC 51299); conditions: Enterococcus faecalis, ATCC51299; read-out: MIC80 E. faecalis
[2] = test system: Escherichia coli (ATCC 25922); conditions: Escherichia coli, ATCC25922; read-out: MIC80 E. coli
[3] = test system: Staphylococcus aureus (ATCC 43300); conditions: Staphylococcus aureus, ATCC43300; read-out: MIC80 S. aureus

Row | Compound | MIC80 [1] [µM] | MIC80 [2] [µM] | MIC80 [3] [µM]
1 | Cn1cc(NC(=O)c2cc(NC(=O)c3ccc(/C=C/c4cnc5ccccc5c4)cc3)cn2C)cc1C(=O)NCCCCC(=N)N [II1, (E)-N-(5-amino-5-iminopentyl)-1-methyl-4-(1-methyl-4-(4-(2-(quinolin-3-yl)vinyl)benzamido)-1H-pyrrole-2-carboxamido)-1H-pyrrole-2-carboxamide] | > 100 | > 100 | 25 to 100 (≈ 15.4 to 61.7 µg/mL)
2 | CN(C)c1ccc(/C=C/c2ccc(C(=O)Nc3cc(C(=O)Nc4cc(C(=O)NCCCCC(=N)N)n(C)c4)n(C)c3)cn2)cc1 [II2, (E)-N-(5-((5-((5-amino-5-iminopentyl)carbamoyl)-1-methyl-1H-pyrrol-3-yl)carbamoyl)-1-methyl-1H-pyrrol-3-yl)-6-(4-(dimethylamino)styryl)nicotinamide] | 5 to 25 (≈ 3.05 to 15.2 µg/mL) | > 100 | 5 to 25 (≈ 3.05 to 15.2 µg/mL)
3 | Cn1cc(NC(=O)c2cc(NC(=O)c3ccc(/C=C/c4cnc5ccccc5c4)cc3)cn2C)cc1C(=O)NCCCCCC(=N)N [II3, (E)-N-(6-amino-6-iminohexyl)-1-methyl-4-(1-methyl-4-(4-(2-(quinolin-3-yl)vinyl)benzamido)-1H-pyrrole-2-carboxamido)-1H-pyrrole-2-carboxamide] | > 100 | > 100 | 5 to 25 (≈ 3.15 to 15.8 µg/mL)
4 | CN(C)c1ccc(/C=C/c2ccc(C(=O)Nc3cc(C(=O)Nc4cc(C(=O)NCCCCCC(=N)N)n(C)c4)n(C)c3)cn2)cc1 [II4, (E)-N-(5-((5-((6-amino-6-iminohexyl)carbamoyl)-1-methyl-1H-pyrrol-3-yl)carbamoyl)-1-methyl-1H-pyrrol-3-yl)-6-(4-(dimethylamino)styryl)nicotinamide] | > 100 | > 100 | 5 to 25 (≈ 3.12 to 15.6 µg/mL)
5 | CN(C)C(=O)c1cc(NC(=O)c2cc(NC(=O)c3ccc(/C=C/c4cnc5ccccc5c4)cc3)cn2C)cn1C [IVa16, (E)-N,N,1-trimethyl-4-(1-methyl-4-(4-(2-(quinolin-3-yl)vinyl)benzamido)-1H-pyrrole-2-carboxamido)-1H-pyrrole-2-carboxamide] | < 5 | > 100 | < 5
6 | CCCNC(=O)c1cc(NC(=O)c2cc(NC(=O)c3ccc(/C=C/c4cnc5ccccc5c4)cc3)cn2C)cn1C [IVa17, (E)-1-methyl-4-(1-methyl-4-(4-(2-(quinolin-3-yl)vinyl)benzamido)-1H-pyrrole-2-carboxamido)-N-propyl-1H-pyrrole-2-carboxamide] | < 5 | > 100 | < 5
7 | COCCNC(=O)c1cc(NC(=O)c2cc(NC(=O)c3ccc(/C=C/c4cnc5ccccc5c4)cc3)cn2C)cn1C [IVa18, (E)-N-(2-methoxyethyl)-1-methyl-4-(1-methyl-4-(4-(2-(quinolin-3-yl)vinyl)benzamido)-1H-pyrrole-2-carboxamido)-1H-pyrrole-2-carboxamide] | < 5 | > 100 | < 5
8 | CNC(=N)CCNC(=O)c1cc(NC(=O)c2cc(NC(=O)c3ccc(/C=C/c4ccc(C(F)(F)F)cc4)cc3)cn2C)cn1C [Ia2, (E)-N-(3-imino-3-(methylamino)propyl)-1-methyl-4-(1-methyl-4-(4-(4-(trifluoromethyl)styryl)benzamido)-1H-pyrrole-2-carboxamido)-1H-pyrrole-2-carboxamide] | – | > 100 | < 5
9 | CNC(=N)CCNC(=O)c1cc(NC(=O)c2cc(NC(=O)c3ccc(/C=C/c4ccc5ccccc5c4)cc3)cn2C)cn1C [Ia4, (E)-N-(3-imino-3-(methylamino)propyl)-1-methyl-4-(1-methyl-4-(4-(2-(naphthalen-2-yl)vinyl)benzamido)-1H-pyrrole-2-carboxamido)-1H-pyrrole-2-carboxamide] | – | > 100 | 5 to 25 (≈ 3.01 to 15 µg/mL)
10 | CONC(=N)CCNC(=O)c1cc(NC(=O)c2cc(NC(=O)c3ccc(/C=C/c4cccc(OC)c4)cc3)cn2C)cn1C [Ia29, (E)-N-(3-imino-3-(methoxyamino)propyl)-4-(4-(4-(3-methoxystyryl)benzamido)-1-methyl-1H-pyrrole-2-carboxamido)-1-methyl-1H-pyrrole-2-carboxamide] | 5 to 25 (≈ 2.99 to 14.9 µg/mL) | > 100 | < 5
11 | [H]/N=C(\CCNC(=O)c1cc(NC(=O)c2cc(NC(=O)c3ccc(C=Cc4ccc5nonc5c4)cc3)cn2C)cn1C)NOC [Ia30, (E)-4-(4-(2-(benzo[c][1,2,5]oxadiazol-5-yl)vinyl)benzamido)-N-(5-((3-imino-3-(methoxyamino)propyl)carbamoyl)-1-methyl-1H-pyrrol-3-yl)-1-methyl-1H-pyrrole-2-carboxamide] | 5 to 25 (≈ 3.05 to 15.2 µg/mL) | > 100 | 5 to 25 (≈ 3.05 to 15.2 µg/mL)
12 | [H]/N=C(\CCNC(=O)c1cc(NC(=O)c2cc(NC(=O)c3ccc(C=Cc4ccc(N(C)C)cc4)nc3)cn2C)cn1C)NOC [Ia31, (E)-6-(4-(dimethylamino)styryl)-N-(5-((5-((3-imino-3-(methoxyamino)propyl)carbamoyl)-1-methyl-1H-pyrrol-3-yl)carbamoyl)-1-methyl-1H-pyrrol-3-yl)nicotinamide] | 5 to 25 (≈ 3.06 to 15.3 µg/mL) | > 100 | < 5
13 | C/N=C(/CCNC(=O)c1cc(NC(=O)c2cc(NC(=O)c3ccc(/C=C/c4cccc(F)c4)cc3)cn2C)cn1C)NC [Ia64, 4-(4-((E)-3-fluorostyryl)benzamido)-1-methyl-N-(1-methyl-5-(((Z)-3-(methylamino)-3-(methylimino)propyl)carbamoyl)-1H-pyrrol-3-yl)-1H-pyrrole-2-carboxamide] | – | – | 5 to 25 (≈ 2.92 to 14.6 µg/mL)
14 | C/N=C(/CCNC(=O)c1cc(NC(=O)c2cc(NC(=O)c3ccc(/C=C/c4ccc(F)cc4)nc3)cn2C)cn1C)NC [Ia65, 6-((E)-4-fluorostyryl)-N-(1-methyl-5-((1-methyl-5-(((Z)-3-(methylamino)-3-(methylimino)propyl)carbamoyl)-1H-pyrrol-3-yl)carbamoyl)-1H-pyrrol-3-yl)nicotinamide] | – | – | < 5
15 | CC[N+](C)(C)CCCNC(=O)c1cc(NC(=O)c2cc(NC(=O)c3ccc(/C=C/c4cccc(C(F)(F)F)c4)nc3)cn2C)cn1C [Ic20, (E)-N-ethyl-N,N-dimethyl-3-(1-methyl-4-(1-methyl-4-(6-(3-(trifluoromethyl)styryl)nicotinamido)-1H-pyrrole-2-carboxamido)-1H-pyrrole-2-carboxamido)propan-1-aminium] | – | – | 25 to 100
16 | CC[N+](C)(C)CCCNC(=O)c1cc(NC(=O)c2cc(NC(=O)c3ccc(/C=C/c4ccc(F)c(OC)c4)nc3)cn2C)cn1C [Ic21, (E)-N-ethyl-3-(4-(4-(6-(4-fluoro-3-methoxystyryl)nicotinamido)-1-methyl-1H-pyrrole-2-carboxamido)-1-methyl-1H-pyrrole-2-carboxamido)-N,N-dimethylpropan-1-aminium] | – | – | 25 to 100
17 | CC[N+](C)(C)CCCNC(=O)c1cc(NC(=O)c2cc(NC(=O)c3ccc(/C=C/c4ccc5nonc5c4)cc3)cn2C)cn1C [Ic22, (E)-3-(4-(4-(4-(2-(benzo[c][1,2,5]oxadiazol-5-yl)vinyl)benzamido)-1-methyl-1H-pyrrole-2-carboxamido)-1-methyl-1H-pyrrole-2-carboxamido)-N-ethyl-N,N-dimethylpropan-1-aminium] | – | – | 25 to 100
18 | CC[N+](C)(C)CCCNC(=O)c1cc(NC(=O)c2cc(NC(=O)c3ccc(/C=C/c4cnc5ccccc5c4)cc3)cn2C)cn1C [Ic23, (E)-N-ethyl-N,N-dimethyl-3-(1-methyl-4-(1-methyl-4-(4-(2-(quinolin-3-yl)vinyl)benzamido)-1H-pyrrole-2-carboxamido)-1H-pyrrole-2-carboxamido)propan-1-aminium] | – | – | 5 to 25
